The source of these data is US20040022667A1 (priority 2001, published 2004).

For data set [1] the following is noted: 20° C.; cited from earlier work.
The test system of data set [2] is anthrax spores. It is filed as cell-based, Bacillus anthracis. The settings on record: ~50 ppm (approx. 50 mg/liter) pure ClO2 in water.

As to `O=O` [oxygen], the “solubility per liter of water” value in data set [1] is recorded as 9.2 mg. On to Chlorine dioxide, for which the “time to substantially destroy anthrax spores” value in data set [2] is “less than 1 min”.
